Source: patent publication US20250276983A1, “COMPOUNDS AND METHODS FOR MODULATING HER2” (IAMBIC THERAPEUTICS, INC., priority 2022, published 2025)

Assays:
Type in all cases: cell-based
BaF3_EGFRWT cells = assay: Cell growth inhibition assay, BaF3_EGFRWT; details: 72 h, 80 ng/mL recombinant human EGF, 3 days treatment, CellTiterGlo 2.0, read-out: EGFR WT IC50 (nM), cell growth inhibition
BaF3_HER2WT cells = assay: Cell growth inhibition assay, BaF3_HER2WT; details: 72 h, 3 days treatment, CellTiterGlo 2.0, read-out: HER2 WT IC50 (nM), cell growth inhibition
BaF3_HER2YVMA cells = assay: Cell growth inhibition assay, BaF3_HER2YVMA; details: 72 h, BaF3_HER2YVMA cells, 3 days treatment, CellTiterGlo 2.0; read-out: HER2-YVMA IC50 (nM), cell growth inhibition

IC50 (BaF3_EGFRWT cells) | IC50 (BaF3_HER2WT cells) | IC50 (BaF3_HER2YVMA cells) | Compound
1500 to 5000 nM | 1500 to 5000 nM | 1500 to 5000 nM | CN(C)C/C=C/C(=O)N1CC(c2ccn3ncnc(Nc4cnc(Oc5cccc(C(F)(F)F)c5)c(Cl)c4)c23)C1 [Example 90, (E)-1-(3-(4-((5-chloro-6-(3-(trifluoromethyl)phenoxy)pyridin-3-yl)amino)pyrrolo[2,1-f][1,2,4]triazin-5-yl)azetidin-1-yl)-4-(dimethylamino)but-2-en-1-one]
1500 to 5000 nM | < 200 nM | < 200 nM | Cc1cc(Nc2ncnn3ccc(C4CN(C(=O)/C(F)=C/C5CCCN5C)C4)c23)ccc1Oc1ccn2ncnc2c1 (stereo not drawn) [Example 92, (Z)-1-(3-(4-((4-([1,2,4]triazolo[1,5-a]pyridin-7-yloxy)-3-methylphenyl)amino)pyrrolo[2,1-f][1,2,4]triazin-5-yl)azetidin-1-yl)-2-fluoro-3-(1-methylpyrrolidin-2-yl)prop-2-en-1-one]
1500 to 5000 nM | < 200 nM | < 200 nM | COC1CN(C/C=C/C(=O)N2CCC(c3ccn4ncnc(Nc5ccc(Oc6ccn7ncnc7c6)c(C)c5)c34)CC2)C1 [Example 117, (E)-1-(4-(4-((4-([1,2,4]triazolo[1,5-a]-207-midazol-7-yloxy)-3-methylphenyl)amino)pyrrolo[2,1-f][1,2,4]triazin-5-yl)piperidin-1-yl)-4-(3-methoxyazetidin-1-yl)but-2-en-1-one]
1500 to 5000 nM | < 200 nM | < 200 nM | COC1CCN(C/C=C/C(=O)N2CCC(c3ccn4ncnc(Nc5ccc(Oc6ccn7ncnc7c6)c(C)c5)c34)CC2)C1 (stereo not drawn) [Example 118, E-1-(4-(4-((4-([1,2,4]triazolo[1,5-a]-207-midazol-7-yloxy)-3-methylphenyl)amino)pyrrolo[2,1-f][1,2,4]triazin-5-yl)piperidin-1-yl)-4-(3-methoxypyrrolidin-1-yl)but-2-en-1-one]
1500 to 5000 nM | < 200 nM | < 200 nM | Cc1cc(Nc2ncnn3ccc(C4CCN(C(=O)/C=C/CN5CC6COCC6C5)CC4)c23)ccc1Oc1ccn2ncnc2c1 (stereo not drawn) [Example 119, E-1-(4-(4-((4-([1,2,4]triazolo[1,5-a]-208-midazol-7-yloxy)-3-methylphenyl)amino)pyrrolo[2,1-f][1,2,4]triazin-5-yl)piperidin-1-yl)-4-(tetrahydro-1H-furo[3,4-c]pyrrol-5(3H)-yl)but-2-en-1-one]
1500 to 5000 nM | < 200 nM | < 200 nM | Cc1cc(Nc2ncnn3ccc(C4CCN(C(=O)/C=C/CN5CCC6(COC6)C5)CC4)c23)ccc1Oc1ccn2ncnc2c1 [Example 120, E-1-(4-(4-((4-([1,2,4]triazolo[1,5-a]-208-midazol-7-yloxy)-3-methylphenyl)amino)pyrrolo[2,1-f][1,2,4]triazin-5-yl)piperidin-1-yl)-4-(2-oxa-6-azaspiro[3.4]octan-6-yl)but-2-en-1-one]
500 to 1500 nM | < 200 nM | < 200 nM | C=CC(=O)N1CCN(c2ccn3ncnc(Nc4ccc(Oc5ccc6c(c5)ncn6C)c(C)c4)c23)CC1 [Example 121, 1-(4-(4-((3-methyl-4-((1-methyl-1H-benzo[d]imidazol-5-yl)oxy)phenyl)amino)pyrrolo[2,1-f][1,2,4]triazin-5-yl)piperazin-1-yl)prop-2-en-1-one]
1500 to 5000 nM | < 200 nM | < 200 nM | Cc1cc(Nc2ncnn3ccc(C4CCN(C(=O)/C=C/CN5CCC6(COC6)C5)CC4)c23)ccc1Oc1ccc2c(c1)ncn2C [Example 129, (E)-1-(4-(4-((3-methyl-4-((1-methyl-1H-benzo[d]imidazol-5-yl)-oxy)phenyl)amino)-pyrrolo[2,1-f][1,2,4]triazin-5-yl)piperidin-1-yl)-4-(2-oxa-6-azaspiro[3.4]octan-6-yl)but-2-en-1-one]
1500 to 5000 nM | < 200 nM | < 200 nM | Cc1cc(Nc2ncnn3ccc(C4CCN(C(=O)/C=C/CN(C)C)CC4)c23)ccc1Oc1ccc2c(c1)ncn2C [Example 133, (E)-4-(dimethylamino)-1-(4-(4-((3-methyl-4-((1-methyl-1H-benzo[d]-224-midazole-5-yl)oxy)phenyl)amino)pyrrolo[2,1-f][1,2,4]triazin-5-yl)piperidin-1-yl)but-2-en-1-one]
1500 to 5000 nM | 200 to 500 nM | 1500 to 5000 nM | Cc1cc(Nc2ncnn3ccc(C4CN(C(=O)/C=C/CN(C)C)C4)c23)ccc1Oc1ccn2cnnc2c1 [Example 134, (E)-1-(3-(4-((4-([1,2,4]triazolo[4,3-a]pyridin-7-yloxy)-3-methylphenyl)amino)pyrrolo[2,1-f][1,2,4]triazin-5-yl)azetidin-1-yl)-4-(dimethylamino)but-2-en-1-one]
1500 to 5000 nM | 200 to 500 nM | 500 to 1500 nM | C=CC(=O)N1C[C@H]2C[C@@H]1C[C@@H]2c1ccn2ncnc(Nc3ccc(Oc4ccn5ncnc5c4)c(C)c3)c12 [Example 141, 1-[(1S,4S,5S)-5-{4-[(3-methyl-4-{[1,2,4]triazolo[1,5-a]pyridin-7-yloxy}phenyl)amino]pyrrolo[2,1-f][1,2,4]triazin-5-yl}-2-azabicyclo[2.2.1]heptan-2-yl]prop-2-en-1-one]
1500 to 5000 nM | 1500 to 5000 nM | 1500 to 5000 nM | Cc1cc(Nc2ncnn3ccc(C4CCN(C(=O)/C=C/C(=O)O)CC4)c23)ccc1Oc1ccn2ncnc2c1 [Example 142, (E)-4-(4-(4-((4-([1,2,4]triazolo[1,5-a]pyridin-7-yloxy)-3-methylphenyl)amino)pyrrolo[2,1-f][1,2,4]triazin-5-yl)piperidin-1-yl)-4-oxobut-2-enoic acid]
1500 to 5000 nM | 500 to 1500 nM | 1500 to 5000 nM | Cc1cc(Nc2ncnn3ccc(C4CCN(C(=O)/C=C/CN)CC4)c23)ccc1Oc1ccn2ncnc2c1 [Example 150, (E)-1-(4-(4-((4-([1,2,4]triazolo[1,5-a]pyridin-7-yloxy)-3-methylphenyl)amino)pyrrolo[2,1-f][1,2,4]triazin-5-yl)piperidin-1-yl)-4-aminobut-2-en-1-one]
1500 to 5000 nM | < 200 nM | < 200 nM | CNC/C=C/C(=O)N1CC(c2ccn3ncnc(Nc4ccc(Oc5ccn6ncnc6c5)c(C)c4)c23)C1 [Example 151, (E)-1-(3-(4-((4-([1,2,4]triazolo[1,5-a]pyridin-7-yloxy)-3-methylphenyl)amino)pyrrolo[2,1-f][1,2,4]triazin-5-yl)azetidin-1-yl)-4-(methylamino)but-2-en-1-one]
1500 to 5000 nM | < 200 nM | < 200 nM | Cc1cc(Nc2ncnn3cc(F)c(C4CCN(C(=O)/C=C/CN(C)C)CC4)c23)ccc1Oc1ccn2ncnc2c1 [Example 152, (E)-1-(4-(4-((4-([1,2,4]triazolo[1,5-a]pyridin-7-yloxy)-3-methylphenyl)amino)-6-fluoropyrrolo[2,1-f][1,2,4]triazin-5-yl)piperidin-1-yl)-4-(dimethylamino)but-2-en-1-one]
1500 to 5000 nM | 1500 to 5000 nM | 1500 to 5000 nM | CNC/C=C/C(=O)N1CC(c2ccn3ncnc(Nc4ccc(Oc5ccc6c(c5)ncn6C)c(C)c4)c23)C1 [Example 153, (E)-1-(3-(4-((3-methyl-4-((1-methyl-1H-benzo[d]imidazol-5-yl)oxy)phenyl)amino)pyrrolo[2,1-f][1,2,4]triazin-5-yl)azetidin-1-yl)-4-(methylamino)but-2-en-1-one]
1500 to 5000 nM | < 200 nM | < 200 nM | Cc1cc(Nc2ncnn3ccc(C4CCN(C(=O)/C=C/CO)CC4)c23)ccc1Oc1ccn2ncnc2c1 [Example 154, (E)-1-(4-(4-((4-([1,2,4]triazolo[1,5-a]pyridin-7-yloxy)-3-methylphenyl)amino)pyrrolo[2,1-f][1,2,4]triazin-5-yl)piperidin-1-yl)-4-hydroxybut-2-en-1-one]
1500 to 5000 nM | < 200 nM | < 200 nM | Cc1cc(Nc2ncnn3ccc(C4CN(C(=O)/C=C/CN(C)C)C4)c23)ccc1Oc1ccn2ccnc2c1 [Example 157, (E)-4-(dimethylamino)-1-(3-(4-((4-(imidazo[1,2-a]pyridin-7-yloxy)-3-methylphenyl)amino)pyrrolo [2,1-f][1,2,4]triazin-5-yl)azetidin-1-yl)but-2-en-1-one]
500 to 1500 nM | < 200 nM | < 200 nM | Cc1cc(Nc2ncnn3ccc(C4CN(C(=O)/C=C/CN(C)C)C4)c23)ccc1Oc1cc2ncnn2cn1 [Example 158, (E)-1-(3-(4-((4-([1,2,4]triazolo[1,5-c]pyrimidin-7-yloxy)-3-methylphenyl)amino)pyrrolo[2,1-f][1,2,4]triazin-5-yl)azetidin-1-yl)-4-(dimethylamino)but-2-en-1-one]
1500 to 5000 nM | < 200 nM | < 200 nM | Cc1cc(Nc2ncnn3ccc(C4CN(C(=O)/C=C/C56CCCN5CCC6)C4)c23)ccc1Oc1ccn2ncnc2c1 [Example 159, (E)-1-(3-(4-((4-([1,2,4]triazolo[1,5-a]pyridin-7-yloxy)-3-methylphenyl)amino)pyrrolo[2,1-f][1,2,4]triazin-5-yl)azetidin-1-yl)-3-(tetrahydro-1H-pyrrolizin-7a(5H)-yl)prop-2-en-1-one]
1500 to 5000 nM | < 200 nM | < 200 nM | Cc1cc(Nc2ncnn3ccc(C4CN(C(=O)/C=C\C56CCCN5CCC6)C4)c23)ccc1Oc1ccn2ncnc2c1 [Example 160, (Z)-1-(3-(4-((4-([1,2,4]triazolo[1,5-a]pyridin-7-yloxy)-3-methylphenyl)amino)pyrrolo[2,1-f][1,2,4]triazin-5-yl)azetidin-1-yl)-3-(tetrahydro-1H-pyrrolizin-7a(5H)-yl)prop-2-en-1-one]
